Reference: patent publication US20110236381A1, “INHIBITION OF INTER-ALPHA TRYPSIN INHIBITOR FOR THE TREATMENT OF AIRWAY DISEASE” (priority 2008, published 2011)
Entries after “also recorded” stand apart in the source; their conditions may differ.

How the values were obtained:
[1] = in vivo; cited from earlier work
C57BL/6J mice = test: Ozone-induced AHR, total lung resistance to methacholine (FlexiVent); format: in vivo; conditions: 50 μl instilled 1 hour before and 23 hours after acute ozone exposure; AHR 24 hours after ozone; vs vehicle
From the text: Exposure Protocol: C57BL/6J, CD44−/−, IaI−/− or HAS2 transgenic mice (mice that overexpress HAS2) were exposed to either Hepa-filtered air (FA) or ozone. Animals were housed in cages with low-endotoxin bedding, and given water and chow ad libitum. Ozone exposures were two parts per million (ppm) for three hours. The selection of ozone concentration levels in the mouse was based on similar biological responses observed in human exposure studies and published deposition fraction data for 03 in rodent models (Wiester et al., Toxicol Appl Pharmacol 96(1):140-146, 1988). Exposures were performed in 55-liter Hinner chambers with individual animal slots. […] Chamber ozone concentration was monitored continuously with a UV light photometer (1003AH, Dasibi, Glendale, Calif.). […]
HA challenge: Sterile, endotoxin-free (0.00008 EU/ml) high molecular weight hyaluronan (HMW-HA) (Healon, AMO, Santa Ana, Calif.) was reconstituted at 0.5 mg/ml in 0.02 M acetate/0.15 M sodium chloride, pH 6.0. […] In some experiments, 50 μl of HMW-HA, sHA, or vehicle were instilled oropharyngeally into isoflurane-anesthetized mice, and AHR was measured invasively 2-4 hours later. In other experiments, 50 μl of HMW-HA or vehicle was instilled 1 hour before and 23 hours after acute ozone exposure, and AHR was measured invasively 24 hours after ozone exposure. […]

naive C57BL/6J mice [2] = test: Lung lavage cells after sHA instillation; format: in vivo; conditions: compared to vehicle
Procedure: (§1) HA challenge: Sterile, endotoxin-free (0.00008 EU/ml) high molecular weight hyaluronan (HMW-HA) (Healon, AMO, Santa Ana, Calif.) was reconstituted at 0.5 mg/ml in 0.02 M acetate/0.15 M sodium chloride, pH 6.0. For the production of low molecular weight (also known as short-fragment) hyaluronan (sHA), healon was sonicated on ice. Sizes were confirmed by electrophoresis according to known methods (Lee and Cowman Anal Biochem 219(2):278-287, 1994). In some experiments, 50 μl of HMW-HA, sHA, or vehicle were instilled oropharyngeally into isoflurane-anesthetized mice, and AHR was measured invasively 2-4 hours later. In other experiments, 50 μl of HMW-HA or vehicle was instilled 1 hour before and 23 hours after acute ozone exposure, and AHR was measured invasively 24 hours after ozone exposure.
Whole lung lavage: Whole lung lavage was performed according to previously described methods (Hollingsworth et al., Am J Respir Crit Care Med 170(2):126-132, 2004). Supernatants were stored at −70° C.

naive C57BL/6J mice [3] = test: HA challenge: oropharyngeal instillation of hyaluronan into naive mice, AHR measured invasively; format: in vivo; conditions: 50 μl of 0.5 mg/ml oropharyngeal, AHR 2-4 hours later, compared to vehicle
Procedure: as §1
(§2) Airway Physiology: Twenty four hours after the beginning of exposure, tracheas of anesthetized mice (pentobarbital sodium, 60 mg/kg i.p.) were surgically dissected and intubated, mice were paralyzed (pancuronium bromide, […] i.v.) and ventilated with a computer-controlled small animal ventilator (FlexiVent™, SCIREQ, Montreal, Canada) at a tidal volume of 7.5 ml/kg and a positive end-expiratory pressure of 3 cm H2O. Forced oscillation was used for measurements of respiratory mechanics. […]

CD44-deficient mice = test: HA challenge in CD44-deficient mice, AHR; format: in vivo; conditions: sHA instillation
Procedure: as §1, §2

Substance	bronchoconstrictive response in exercise-induced asthma [1]	ozone-induced AHR with hyaluronan instilled before and after ozone (C57BL/6J mice)	total cells or cell composition in lung lavage fluid after instillation (naive C57BL/6J mice [2])	induction of AHR in naive mice (naive C57BL/6J mice [3])	sHA-induced AHR in CD44-deficient mice compared to C57BL/6 (CD44-deficient mice)
high molecular weight hyaluronan [HMW-HA]	attenuate the bronchoconstrictive response	significantly ameliorates AHR; also recorded: significant attenuation of AHR			
short-fragment hyaluronan [sHA]			significant changes in total cells or cell composition in the lung lavage fluid were not observed; also recorded: a significant change was not observed in any cell type	induced AHR	resistant to sHA-induced AHR
